The values below are quoted from earlier work in patent US20140090255A1, “Skin Engaging Member Comprising At Least One Thermally Resilient Sensate” (The Gillette Company, priority 2012, published 2014).

SMILES strings stand for the structures.

The conditions of the data set: concentration where the cooling effect could be clearly recognized; Emberger and Hopp 1987.
As for `CC(C)[C@@H]1CC[C@@H](C)C[C@@H]1O` [d-neomenthol], the cooling threshold entry is reported as “about 25,000 ppb”.

Regarding `CC(C)[C@@H]1CC[C@@H](C)C[C@H]1O` [L-menthol], the cooling threshold result is “about 800 ppb”.

With `CC(C)[C@@H]1CC[C@@H](C)C[C@@H]1O` [Example 1-neomenthol, 1-neomenthol], the cooling threshold result is on record as “about 3,000 ppb”.
